Measurements reported in patent US7399462B2, “Protectant for UV-induced skin damage” (QLT USA, Inc., priority 2002, dated 2008).

Assays:
UV-induced tumors = details: topical; UV induced mouse carcinogenicity model; cited from earlier work
[1] = tested on: UV-induced skin tumor formation

Compound	Formation of skin tumors compared to untreated or vehicle controls (UV-induced tumors)	Effect on Unbiased Median Weeks to Tumor (in words) ([1]; 600 RBU/week)	Tumor Potency Ratio (≧1 mm Tumor Size), Sexes Combined ([1]; UVR 600 RBU/week, sexes combined, calculated from Unbiased Median Week to Tumor and untreated 600/1200 RBU calibration)
O=C(OOC(=O)c1ccccc1)c1ccccc1 [Benzoyl peroxide]	promote the formation of skin tumors		
Nc1ccc(S(=O)(=O)c2ccc(N)cc2)cc1 [Dapsone, bis(4-aminophenyl)sulfone]		increased the Unbiased Median Weeks to Tumor in a dose-dependent manner	reduced with dapsone application in a dose-dependent manner
CC1=C(/C=C/C(C)=C/C=C/C(C)=C/C(=O)O)C(C)(C)CCC1 [tretinoin]	promote the formation of skin tumors		
